Assay results from patent US7772180B2, “Hepatitis C virus inhibitors” (Bristol-Myers Squibb Company, priority 2006, dated 2010).

Target: T1, human neutrophil elastase (HNE) (Homo sapiens, UniProt P08246)
T1 construct: purchased Sigma, EMDbiosciences
T1 sequence (P08246 30-267): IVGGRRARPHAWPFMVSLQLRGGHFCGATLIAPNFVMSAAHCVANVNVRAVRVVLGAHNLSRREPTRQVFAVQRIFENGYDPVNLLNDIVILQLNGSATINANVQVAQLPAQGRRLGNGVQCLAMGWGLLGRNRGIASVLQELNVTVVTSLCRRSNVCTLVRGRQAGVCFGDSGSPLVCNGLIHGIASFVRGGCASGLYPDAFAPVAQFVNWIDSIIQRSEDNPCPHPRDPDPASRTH
Assay: Specificity assay, human neutrophil elastase
Format: biochemical
Settings: read-out: HLE activity in the specificity assays (IC50)
Experimental: The specificities of compounds of the present disclosure were determined against a variety of serine proteases: human neutrophil elastase (HNE), porcine pancreatic elastase (PPE) and human pancreatic chymotrypsin and one cysteine protease: human liver cathepsin B. In all cases a 96-well plate format protocol using either colorimetric p-nitroaniline (pNA) substrate or fluorometric Amino-Methyl-Coumarin (AMC) specific for each enzyme was used as described previously (PCT Patent Application No. WO 00/09543) with some modifications to the serine protease assays. All enzymes were purchased from Sigma, EMDbiosciences while the substrates were from Bachem, Sigma and EMDbiosciences.
The pNA assay for Chymotrypsin included a 1 h enzyme-inhibitor pre-incubation at room temperature followed by addition of substrate and hydrolysis to ˜15% conversion as measured on a Spectramax Pro microplate reader. Compound concentrations varied from 100 to 0.4 μM depending on their potency. Cathepsin B, HNE, and PPE assays each was initiated by addition of substrate to enzyme-inhibitor pre-incubated for 10 min at room temperature and hydrolysis to 15% conversion as measured on cytofluor.
50 mM Tris-HCl, pH 8.0, 50 mM NaCl, 0.1 mM EDTA, 3% DMSO, 0.02% Tween-20, 5 μM succ-AAPV-AMC and 20 nM HNE or 8 nM PPE;
The percentage of inhibition was calculated using the formula: [1−((UVinh−UVblank)/(UVctl−UVblank))]×100 […]

With `C=C[C@@H]1C[C@]1(NC(=O)[C@@H]1C[C@@H](Oc2nc(N(C)C)cc3cc(OC)ccc23)CN1C(=O)C(Nc1cc(C)cc(C)n1)C(C)(C)C)C(=O)NS(=O)(=O)C1CC1` (single isomer, unassigned) [Compound 18] as the molecule, how does the IC50 read?
The IC50 was over 1.56 µM.
